Test results reported in patent EP3478687B1 (Daewoong Pharmaceutical Co., Ltd., priority 2016, dated 2018).

Legend:
[1] = target: T1, Recombinant purified human JAK3 (Homo sapiens, UniProt P52333); assay: JAK3 kinase inhibitory activity, ADP-Glo kinase assay (Promega V9441); type: biochemical; details: ATP 5 uM, 4 ng JAK3 per reaction, 1 hour 30 °C, chemiluminescence
T1 construct: purchased Promega V9441
T1 sequence (P52333 1-1124): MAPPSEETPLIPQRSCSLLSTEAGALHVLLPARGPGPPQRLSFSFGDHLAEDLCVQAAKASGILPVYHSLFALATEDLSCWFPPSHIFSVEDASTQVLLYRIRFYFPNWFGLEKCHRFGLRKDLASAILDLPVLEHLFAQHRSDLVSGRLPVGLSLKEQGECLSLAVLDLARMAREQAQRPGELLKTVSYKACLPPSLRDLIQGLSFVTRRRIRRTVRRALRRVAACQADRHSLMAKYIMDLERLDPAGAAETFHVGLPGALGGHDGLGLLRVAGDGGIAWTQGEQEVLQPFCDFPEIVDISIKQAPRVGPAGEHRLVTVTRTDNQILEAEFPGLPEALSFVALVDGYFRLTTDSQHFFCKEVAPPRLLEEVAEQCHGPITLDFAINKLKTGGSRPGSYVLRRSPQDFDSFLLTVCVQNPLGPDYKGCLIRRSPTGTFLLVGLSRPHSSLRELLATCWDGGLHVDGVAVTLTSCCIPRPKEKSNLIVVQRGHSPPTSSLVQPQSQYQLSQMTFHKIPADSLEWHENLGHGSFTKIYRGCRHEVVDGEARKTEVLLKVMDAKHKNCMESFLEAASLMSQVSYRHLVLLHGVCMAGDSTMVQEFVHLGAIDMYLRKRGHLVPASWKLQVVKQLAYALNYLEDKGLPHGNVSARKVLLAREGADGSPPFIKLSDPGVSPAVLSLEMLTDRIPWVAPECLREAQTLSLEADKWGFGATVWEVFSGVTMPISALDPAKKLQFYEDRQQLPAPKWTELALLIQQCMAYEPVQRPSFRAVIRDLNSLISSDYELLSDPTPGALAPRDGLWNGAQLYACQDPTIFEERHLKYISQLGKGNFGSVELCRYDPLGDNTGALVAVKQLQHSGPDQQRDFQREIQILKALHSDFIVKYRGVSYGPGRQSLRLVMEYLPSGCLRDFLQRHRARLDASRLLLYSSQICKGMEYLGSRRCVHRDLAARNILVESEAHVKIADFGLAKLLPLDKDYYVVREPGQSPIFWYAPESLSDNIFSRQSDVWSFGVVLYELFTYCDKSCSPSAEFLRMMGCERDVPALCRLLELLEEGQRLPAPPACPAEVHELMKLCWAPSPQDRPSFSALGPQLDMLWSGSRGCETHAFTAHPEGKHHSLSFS
In short: (§1)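 IC50 values come from ADP-Glo luminescence after 1 h kinase reactions at 30 °C in 1% DMSO on 0.2 µg/µL Poly(Glu4,Tyr1) substrate. ATP was 10 µM for BTK (8 ng, buffer containing MnCl2) and 5 µM for JAK3 (4 ng), in Tris-Cl pH 7.5/MgCl2/BSA/DTT.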

[2] = target: T2, Recombinant purified human BTK (Homo sapiens, UniProt Q06187); assay: BTK kinase inhibitory activity, ADP-Glo kinase assay (Promega V9071); type: biochemical; details: ATP 10 uM, 8 ng BTK per reaction, 1 hour 30 °C, chemiluminescence
T2 construct: purchased Promega V9071
In short: as §1

T2 sequence (Q06187 whole entry): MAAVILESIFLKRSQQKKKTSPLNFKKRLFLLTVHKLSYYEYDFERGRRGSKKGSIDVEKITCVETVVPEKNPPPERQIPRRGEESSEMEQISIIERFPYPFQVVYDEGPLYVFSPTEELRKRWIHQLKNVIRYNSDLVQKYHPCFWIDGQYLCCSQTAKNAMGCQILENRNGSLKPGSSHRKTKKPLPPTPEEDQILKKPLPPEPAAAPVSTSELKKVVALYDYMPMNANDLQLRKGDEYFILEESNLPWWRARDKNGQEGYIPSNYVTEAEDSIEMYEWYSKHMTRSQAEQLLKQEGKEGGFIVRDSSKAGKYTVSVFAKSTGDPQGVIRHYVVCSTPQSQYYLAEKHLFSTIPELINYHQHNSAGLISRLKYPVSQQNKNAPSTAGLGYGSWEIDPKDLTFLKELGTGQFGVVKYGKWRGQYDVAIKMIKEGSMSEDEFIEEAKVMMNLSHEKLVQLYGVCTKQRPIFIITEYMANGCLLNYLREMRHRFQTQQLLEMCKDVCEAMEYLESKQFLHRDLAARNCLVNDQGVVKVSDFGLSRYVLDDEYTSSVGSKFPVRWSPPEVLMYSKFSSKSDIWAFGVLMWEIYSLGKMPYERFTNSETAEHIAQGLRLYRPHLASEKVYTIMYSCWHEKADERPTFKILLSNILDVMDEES

IC50 [1]	IC50 [2]	SMILES
6 nM	1.1 nM	C=CC(=O)N1CC[C@@H](F)[C@@H](Nc2nc(Nc3cnn(CC)c3)nc3[nH]ncc23)C1 [Example 77, 1-((3S,4R)-3-((6-((1-ethyl-1H-pyrazol-4-yl)amino)-1H-pyrazolo [3,4-d]pyrimidin-4-yl)amino)-4-fluoropiperidin-1-yl)prop-2-en-1-one]
11.4 nM	2.9 nM	CCn1cc(Nc2nc(N[C@H]3CN(C(=O)/C(C#N)=C/C(C)C)CC[C@H]3C)c3c(Cl)n[nH]c3n2)cn1 [Example 170, (E)-2-((3R,4R)-3-((3-chloro-6-((1-ethyl-1H-pyrazol-4-yl)amino)-1H-pyrazolo[3,4-d]pyrimidin-4-yl)amino)-4-methylpiperidine-1-carbonyl)-4-methylpent-2-enenitrile]
1.3 nM	1.2 nM	C=CC(=O)N1CCC[C@@H](Nc2nc(Nc3cnn(CC(C)C)c3)nc3[nH]nc(Cl)c23)C1 [Example 55, (R)-1-(3-(3-chloro-6-(1-isobutyl-1H-pyrazol-4-ylamino)-1H-pyrazolo [3,4-d]pyrimidin-4-ylamino)piperidin-1-yl)prop-2-en-1-one]
2 nM	1.3 nM	C=CC(=O)N1CC[C@@H](C)[C@@H](Nc2nc(Nc3cnn(CC(F)F)c3)nc3[nH]nc(Cl)c23)C1 [Example 93, 1-((3R,4R)-3-((3-chloro-6-((1-(2,2-difluoroethyl)-1H-pyrazol-4-yl)amino)-1H-pyrazolo [3,4-d]pyrimidin-4-yl)amino)-4-methylpiperidin-1-yl)prop-2-en-1-one]
5 nM	1.3 nM	CCn1cc(Nc2nc(N[C@H]3CN(C(=O)/C(C#N)=C/C4CC4)CC[C@H]3F)c3c(Cl)n[nH]c3n2)cn1 [Example 161, (E)-2-((3S,4R)-3-((3-chloro-6-((1-ethyl-1H-pyrazol-4-yl)amino)-1H-pyrazolo[3,4-d]pyrimidin-4-yl)amino)-4-fluoropiperidine-1-carbonyl)-3-cyclopropylacrylonitrile]
1.5 nM	2.2 nM	C=CC(=O)N1CCC[C@@H](Sc2nc(Nc3cnn(CC)c3)nc3[nH]cc(F)c23)C1 [Example 85, (R)-1-(3-((2-((1-ethyl-1H-pyrazol-4-yl)amino)-5-fluoro-7H-pyrrolo[2,3-d]pyrimidin-4-yl)thio)piperidin-1-yl)prop-2-en-1-one]
4.5 nM	2.1 nM	C=CC(=O)N1CC[C@@H](C)[C@@H](Nc2nc(Nc3cnn(CC)c3)nc3[nH]nc(Cl)c23)C1 [Example 92, 1-((3R,4R)-3-((3-chloro-6-((1-ethyl-1H-pyrazol-4-yl)amino)-1H-pyrazolo[3,4-d]pyrimidin-4-yl)amino)-4-methylpiperidin-1-yl)prop-2-en-1-one]
0.4 nM	3 nM	C=CC(=O)N1CCC[C@@H](Oc2nc(Nc3cnn(CC)c3)nc3[nH]ccc23)C1 [Example 151, (R)-1-(3-((2-((1-ethyl-1H-pyrazol-4-yl)amino)-7H-pyrrolo[2,3-d]pyrimidin-4-yl)oay)piperidin-1-yl)prop-2-en-1-one]
2.2 nM	1.1 nM	C=CC(=O)N1CCC[C@@H](Nc2nc(Nc3cnn(CCN4CCOCC4)c3)nc3[nH]ncc23)C1 [Example 72, (R)-1-(3-((6-((1-(2-morpholinoethyl)-1H-pyrazol-4-yl)amino)-1H-pyrazolo[3,4-d]pyrimidin-4-yl)amino)piperidin-1-yl)prop-2-en-1-one]
0.8 nM	1.6 nM	CCn1cc(Nc2nc(N[C@H]3CN(C(=O)CCl)CC[C@H]3C)c3c(Cl)n[nH]c3n2)cn1 [Example 183, 2-chloro-1-((3R,4R)-3-((3-chloro-6-((1-ethyl-1H-pyrazol-4-yl)amino)-1H-pyrazolo [3,4-d]pyrimidin-4-yl)amino)-4-methylpiperidin-1-yl)ethan-1-one]
0.4 nM	9.2 nM	C=CC(=O)N1CCC[C@@H](Nc2nc(Nc3cnn(CC)c3)nc3[nH]cc(C)c23)C1 [Example 79, (R)-1-(3-((2-((1-ethyl-1H-pyrazol-4-yl)amino)-5-methyl-7H-pyrrolo[2,3-d]pyrimidin-4-yl)amino)piperidin-1-yl)prop-2-en-1-one]
0.3 nM	2.7 nM	C=CC(=O)N1CCC[C@@H](Sc2nc(Nc3cnn(CC)c3)nc3[nH]ccc23)C1 [Example 104, (R)-1-(3-((2-((1-ethyl-1H-pyrazol-4-yl)amino)-7H-pyrrolo[2,3-d]pyrimidin-4-yl)thio)piperidin-1-yl)prop-2-en-1-one]
0.3 nM	2.5 nM	C=CC(=O)N1CCC[C@@H](Nc2nc(Nc3cnn(CC(F)F)c3)nc3[nH]nc(Cl)c23)C1 [Example 44, (R)-1-(3-(3-chloro-6-(1-(2,2-difluoroethyl)-1H-pyrazol-4-ylamino)-1H-pyrazolo[3,4-d]pyrimidin-4-ylamino)piperidin-1-yl)prop-2-en-1-one]
5.4 nM	1.7 nM	C=CC(=O)N1CCC[C@@H](Nc2nc(Nc3cnn(CCOC)c3)nc3[nH]ncc23)C1 [Example 74, (R)-1-(3-((6-((1-(2-methoayethyl)-1H-pyrazol-4-yl)amino)-1H-pyrazolo[3,4-d]pyrimidin-4-yl)amino)piperidin-1-yl)prop-2-en-1-one]

Second part, the molecule before the results:

SMILES	IC50 [1]	IC50 [2]
C=CC(=O)N1CCC[C@@H](Nc2nc(Nc3cnn(C4CC4)c3)nc3[nH]cc(Cl)c23)C1 [Example 62, (R)-1-(3-((5-chloro-2-((1-cyclopropyl-1H-pyrazol-4-yl)amino)-7H-pyrrolo[2,3-d]pyrimidin-4-yl)amino)piperidin-1-yl)prop-2-en-1-one]	0.2 nM	1.7 nM
C=CC(=O)N1CCC[C@@H](Nc2nc(Nc3cnn(C4CC4)c3)nc3[nH]cc(C)c23)C1 [Example 78, (R)-1-(3-((2-((1-cyclopropyl-1H-pyrazol-4-yl)amino)-5-methyl-7H-pyrrolo[2,3-d]pyrimidin-4-yl)amino)piperidin-1-yl)prop-2-en-1-one]	0.7 nM	11.5 nM
C=CC(=O)N1CCC[C@@H](Sc2nc(Nc3cnn(C4CC4)c3)nc3[nH]nc(Cl)c23)C1 [Example 110]	1.7 nM	1.4 nM
CCn1cc(Nc2nc(N(C)[C@@H]3CCCN(C(=O)/C(C#N)=C/C4CC4)C3)c3c(Cl)n[nH]c3n2)cn1 [Example 167, (R,E)-2-(3-((3-chloro-6-((1-ethyl-1H-pyrazol-4-yl)amino)-1H-pyrazolo[3,4-d]pyrimidin-4-yl)(methyl)amino)piperidine-1-carbonyl)-3-cyclopropylacrylonitrile]	43.1 nM	1.5 nM
C=CC(=O)N1CCC[C@@H](Nc2nc(Nc3ccc(N4CCN(C)CC4)cc3)nc3[nH]ccc23)C1 [Example 1, (R)-1-(3-(2-(4-(4-methylpiperazin-1-yl)phenylamino)-7H-pyrrolo[2,3-d]pyrimidin-4-ylamino)piperidin-1-yl)prop-2-en-1-one]	3.73 nM	10.7 nM
CCn1cc(Nc2nc(N[C@@H]3CCCN(C(=O)/C(C#N)=C/C4CC4)C3)c3c(Cl)c[nH]c3n2)cn1 [Example 177, (R,E)-2-(3-((5-chloro-2-((1-ethyl-1H-pyrazol-4-yl)amino)-7H-pyrrolo[2,3-d]pyrimidin-4-yl)amino)piperidine-1-carbonyl)-3-cyclopropylacrylonitrile]	0.4 nM	1.2 nM
C=CC(=O)N1CCC[C@@H](Nc2nc(Nc3cnn(C)c3)nc3[nH]cc(Cl)c23)C1 [Example 69, (R)-1-(3-((5-chloro-2-((1-methyl-1H-pyrazol-4-yl)amino)-7H-pyrrolo[2,3-d]pyrimidin-4-yl)amino)piperidin-1-yl)prop-2-en-1-one]	0.3 nM	8.6 nM
CCn1cc(Nc2nc(S[C@@H]3CCCN(C(=O)/C(C#N)=C/C4CC4)C3)c3c(Cl)c[nH]c3n2)cn1 [Example 179]	1.1 nM	8.3 nM
C=CC(=O)N1CCC[C@@H](Nc2nc(Nc3cnn(C(C)(C)C)c3)nc3[nH]nc(C)c23)C1 [Example 187, (R)-1-(3-((6-((1-(tert-butyl)-1H-pyrazol-4-yl)amino)-3-methyl-1H-pyrazolo [3,4-d]pyrimidin-4-yl)amino)piperidin-1-yl)prop-2-en-1-one]	14.6 nM	1.8 nM
